Assay results taken from patent EP1079826B1, “USE OF INDIGOID BISINDOLE DERIVATIVES FOR THE MANUFACTURE OF A MEDICAMENT TO INHIBIT CYCLIN DEPENDENT KINASES” (CNRS, Centre National de la Recherche Scientifique, priority 1998, dated 1999).
Read-outs that look alike come from different tables or passages of the source.

Experiments:
[1] = system: CDK1; settings: Table 1, known inhibitors; roscovitine value for racemic mixture; cited from earlier work
[2] = system: MAPK; settings: Table 1, known inhibitors; cited from earlier work
[3] = molecular target: epidermal growth factor receptor tyrosine kinase (Homo sapiens, UniProt P00533); settings: Table 1, known inhibitors; read-out: IC50 Tyrosine-kinase (EGF-R); cited from earlier work
Sequence of epidermal growth factor receptor tyrosine kinase (P00533 25-1210): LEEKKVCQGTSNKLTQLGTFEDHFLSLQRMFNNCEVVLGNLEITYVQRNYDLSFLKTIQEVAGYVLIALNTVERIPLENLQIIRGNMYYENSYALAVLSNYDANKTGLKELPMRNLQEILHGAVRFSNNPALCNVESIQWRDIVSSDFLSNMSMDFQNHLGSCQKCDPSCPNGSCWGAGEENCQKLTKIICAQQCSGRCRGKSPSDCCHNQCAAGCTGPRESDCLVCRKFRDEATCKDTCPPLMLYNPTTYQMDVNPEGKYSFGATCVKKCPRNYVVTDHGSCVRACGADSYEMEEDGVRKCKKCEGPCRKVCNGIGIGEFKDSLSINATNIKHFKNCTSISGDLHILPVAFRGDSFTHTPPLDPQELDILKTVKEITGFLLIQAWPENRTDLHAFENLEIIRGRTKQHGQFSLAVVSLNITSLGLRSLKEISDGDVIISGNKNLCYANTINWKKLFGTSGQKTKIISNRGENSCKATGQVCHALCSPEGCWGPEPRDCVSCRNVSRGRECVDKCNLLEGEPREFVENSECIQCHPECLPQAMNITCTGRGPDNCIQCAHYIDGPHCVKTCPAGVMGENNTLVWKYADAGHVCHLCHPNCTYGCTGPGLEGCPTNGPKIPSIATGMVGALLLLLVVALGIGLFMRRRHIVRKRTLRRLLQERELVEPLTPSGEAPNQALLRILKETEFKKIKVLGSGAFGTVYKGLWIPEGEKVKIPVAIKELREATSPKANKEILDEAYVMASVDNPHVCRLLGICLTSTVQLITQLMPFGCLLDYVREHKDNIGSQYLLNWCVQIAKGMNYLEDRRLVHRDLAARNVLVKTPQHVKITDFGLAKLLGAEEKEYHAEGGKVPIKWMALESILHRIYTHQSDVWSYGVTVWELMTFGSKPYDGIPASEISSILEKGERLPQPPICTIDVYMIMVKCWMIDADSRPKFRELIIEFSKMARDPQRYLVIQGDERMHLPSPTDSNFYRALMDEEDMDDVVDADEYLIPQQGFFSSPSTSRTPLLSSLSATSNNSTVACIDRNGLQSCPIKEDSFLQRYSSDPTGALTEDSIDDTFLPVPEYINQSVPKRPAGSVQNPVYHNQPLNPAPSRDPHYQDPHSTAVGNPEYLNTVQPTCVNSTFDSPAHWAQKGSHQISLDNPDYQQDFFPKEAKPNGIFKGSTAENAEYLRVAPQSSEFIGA

[4] = system: PKC; settings: Table 1, known inhibitors; cited from earlier work
[5] = compared with indirubine; cited from earlier work
[6] = molecular target: p34^cdc2/cyclinB; assay: p34cdc2/cyclin B kinase assay (histone H1 phosphorylation, [γ-32P] ATP); assay type: biochemical, starfish (Marthasterias glacialis)
Experimental: J. Biochem., 243, (1997), 527-536). […] After 10 min. incubation at 30°C, 25 μl aliquots of supernatant were spotted onto 2.5 x 3 cm pieces of Whatman P81 phosphocellulose paper, and after 20 sec., the filters were washed five times (for at least 5 min. each time) in a solution of 10 ml phosphoric acid/liter of water. The wet filters were transferred into 6 ml plastic scintillation vials, 5 ml ACS (Amersham) scintillation fluid was added and the radioactivity measured in a Packard scintillation counter.

[7] = system: PKC; assay: PKC inhibition (specificity panel); assay type: biochemical; settings: Ca2+-dependent protein kinase, Table 3
[8] = system: cdc25; assay: cdc25 inhibition (specificity panel); assay type: biochemical; settings: Table 3
[9] = molecular target: CDK4/ cyclin D1 (Homo sapiens, UniProt P11802); assay: kinase inhibition selectivity, CDK4/cyclin D1; assay type: biochemical
Sequence of CDK4/ cyclin D1 (P11802 whole entry, species assumed): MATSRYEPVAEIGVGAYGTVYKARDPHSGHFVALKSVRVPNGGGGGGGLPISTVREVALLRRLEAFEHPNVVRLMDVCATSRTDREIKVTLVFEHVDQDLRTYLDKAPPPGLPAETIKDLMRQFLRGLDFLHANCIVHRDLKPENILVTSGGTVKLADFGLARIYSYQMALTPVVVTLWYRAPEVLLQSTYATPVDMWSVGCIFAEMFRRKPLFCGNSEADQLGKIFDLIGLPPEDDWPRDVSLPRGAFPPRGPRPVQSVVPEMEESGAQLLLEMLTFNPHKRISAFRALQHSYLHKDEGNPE
Sequence of CDK4/ cyclin D1 (P24385 whole entry partner, species assumed): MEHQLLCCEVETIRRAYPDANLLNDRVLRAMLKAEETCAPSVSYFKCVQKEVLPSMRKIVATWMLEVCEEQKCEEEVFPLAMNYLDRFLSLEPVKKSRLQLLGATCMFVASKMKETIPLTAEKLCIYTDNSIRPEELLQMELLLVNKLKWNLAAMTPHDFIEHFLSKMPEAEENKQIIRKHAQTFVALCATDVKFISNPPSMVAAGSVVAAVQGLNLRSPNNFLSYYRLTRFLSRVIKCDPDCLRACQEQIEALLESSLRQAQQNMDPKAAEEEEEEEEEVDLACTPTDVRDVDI

[10] = molecular target: CDK2/ cyclin E (Homo sapiens, UniProt P24941); assay: biochemical
[11] = molecular target: CDK5/ p35 (Homo sapiens, UniProt Q00535); assay: kinase inhibition selectivity, CDK5/p35; assay type: biochemical
Sequence of CDK5/ p35 (Q00535 whole entry, species assumed): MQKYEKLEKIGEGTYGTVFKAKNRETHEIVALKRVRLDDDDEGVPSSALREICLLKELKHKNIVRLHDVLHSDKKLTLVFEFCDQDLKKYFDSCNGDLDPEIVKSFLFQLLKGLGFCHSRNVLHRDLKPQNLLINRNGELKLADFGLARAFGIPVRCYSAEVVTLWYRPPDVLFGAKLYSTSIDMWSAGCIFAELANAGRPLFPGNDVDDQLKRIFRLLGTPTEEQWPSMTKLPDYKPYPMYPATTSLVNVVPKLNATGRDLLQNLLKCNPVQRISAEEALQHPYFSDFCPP
Sequence of CDK5/ p35 (Q15078 whole entry partner, species assumed): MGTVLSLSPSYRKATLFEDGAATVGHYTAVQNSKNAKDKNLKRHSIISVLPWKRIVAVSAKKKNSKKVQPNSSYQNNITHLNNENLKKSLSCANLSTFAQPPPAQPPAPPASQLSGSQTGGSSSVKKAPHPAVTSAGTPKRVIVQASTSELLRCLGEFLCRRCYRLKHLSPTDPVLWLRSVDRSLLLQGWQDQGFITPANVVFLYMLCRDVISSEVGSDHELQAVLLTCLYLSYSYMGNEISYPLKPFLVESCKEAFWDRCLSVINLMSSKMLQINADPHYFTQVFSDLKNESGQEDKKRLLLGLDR

[12] = molecular target: CDK2/ cyclin A (Homo sapiens, UniProt P24941); assay: biochemical
[13] = system: MCF-7 mammary carcinoma cells; assay: cell cycle arrest in cell culture; assay type: cell-based, human
Experimental: (§1) An inhibition of p34^cdc2-kinase by indigoid bisindole derivatives is not described in the prior art. […] In concentrations ≥ 5 µM, an additional arrest at G2/M-phase of the cell cycle became apparent.

[14] = system: MCF-7 mammary carcinoma cells; assay: growth inhibition in cell culture; assay type: cell-based; settings: Homo sapiens, MCF7, 72 h; after 3 days incubation; 50% growth inhibition as compared to vehicle control
Experimental: as §1

[15] = system: CDK1/cyclin B; assay: histone H1 phosphorylation as a measure for CDK1/cyclin B activity in cell culture; assay type: cell-based, human; settings: after 24 h incubation of MCF-7 mammary carcinoma cells
Source text: An inhibition of p34^cdc2-kinase by indigoid bisindole derivatives is not described in the prior art.

[16] = system: MCF-7 mammary carcinoma cells; assay: induction of apoptotic cell death in cell culture; assay type: cell-based, human
Experimental: as §1

[17] = system: PKG; settings: Table 1, known inhibitors; cited from earlier work
[18] = system: chronic myelogenous leukemia; settings: cases of chronic myelogenous leukemia; cited from earlier work
[19] = cdc2 kinase, Table 3, read-out: IC50 cdc2
[20] = calculated from dose response curves, Table 4, read-out: IC50 CDK1/ cyclin B
[21] = cells arrested by serum deprivation, treatment for 24 h in serum containing medium
[22] = calculated from dose response curves, Table 4, read-out: IC50 CDK5/ p35

## Cc1c2ccncc2c(C)c2c1[nH]c1ccc(O)cc12 [9-Hydroxy-ellipticine, 9-Hydroxyellipticin]
[1]
  IC50: ~1 µM

## COC(=O)C1(Cc2ccc(O)c(CC=C(C)C)c2)OC(=O)C(O)=C1c1ccc(O)cc1 (stereo not drawn) [Butyro-lactone-I, Butyrolactone-I]
[2]
  IC50: 94 µM
[3]
  IC50: > 590 µM
[4]
  IC50: 160 µM
[1]
  IC50: […]

## O=C1Nc2ccc(I)cc2/C1=C1/Nc2ccccc2C1=O [Example 2, 5-Iodoindirubine]
[5]
  antitumor activity: superior to that of indirubine
[6]; [19]
  IC50: 0.3 µM
[7]
  IC50 PKC: no Effect
[8]
  IC50: 130 µM

## O=C1Nc2ccc(Br)cc2/C1=C1/Nc2ccccc2C1=O [Example 3, 5-Bromoindirubine]
[6]; [19]
  IC50: 0.35 µM
[8]
  IC50: 32 µM

## O=C1Nc2ccc(Cl)cc2/C1=C1/Nc2ccccc2C1=O [Example 4, 5-Chloroindirubine]
[6]; [20]
  IC50: 0.4 µM
[6]; [19]
  IC50: 0.4 µM
[8]
  IC50: 55 µM
[9]
  IC50: 6.5 µM
[10]
  IC50: 0.55 µM
[11]
  IC50: 0.8 µM
[12]
  IC50: 0.75 µM

## O=C1Nc2ccc(F)cc2/C1=C1/Nc2ccccc2C1=O [Example 5, 5-Fluoroindirubine]
[6]; [19]
  IC50: 2 µM
[8]
  IC50: 70 µM

## Cc1ccc2c(c1)C(=C1Nc3ccccc3C1=O)C(=O)N2 [Example 6, 5-Methylindirubine]
[6]; [19]
  IC50: 0.8 µM
[8]
  IC50: 60 µM

## O=C1Nc2ccc([N+](=O)[O-])cc2/C1=C1/Nc2ccccc2C1=O [Example 7, 5-Nitroindirubine]
[6]; [19]
  IC50: 2.2 µM
[8]
  IC50: 60 µM

## O=C1Nc2ccccc2/C1=C1/Nc2ccc(Br)cc2C1=O [Example 8, 5'-Bromoindirubine]
[6]; [19]
  IC50: 6.5 µM

## O=C1Nc2ccc(Br)cc2/C1=C1/Nc2ccc(Br)cc2C1=O [Example 9, 5,5'-Dibromoindirubine]
[6]; [19]
  IC50: 7 µM

## O=C1Nc2ccccc2C1=C1Nc2ccccc2C1=NO [Example 10, Indirubine-3'-oxime]
[13]; [21]
  arrest in G1-phase of the cell cycle: low micromolar concentrations
  concentration at which additional arrest at G2/M-phase of the cell cycle became apparent: ≥ 5 µM
[13]; cells arrested in G2/M by Nocodazole treatment, after release of the block
  concentration giving significant increase of G2/M arrested cells: ≥ 5 µM
[14]
  IC50: 3.3 ± 0.7 µM
[10]
  IC50: 0.25 µM
[15]
  content of cyclin B complex: significantly reduced
  histone H1 phosphorylation as a measure for CDK1/cyclin B activity: inhibit histone H1 phosphorylation
[12]
  IC50: 0.44 µM
[16]
  apoptotic cell death: induction of apoptotic cell death was observed

## O=C1Nc2ccc(S(=O)(=O)O)cc2C1=C1Nc2ccccc2C1=O [Example 11, Indirubine-5-sulfonic acid]
[6]; [20]
  IC50: 0.055 µM
[6]; [19]
  IC50: 0.055 µM
[8]
  IC50: 110 µM
[11]; [22]
  IC50: 0.065 µM

## O=C1Nc2ccccc2/C1=C1\C(=O)Nc2ccccc21 [Example 12, Isoindigo]
[6]; read-out: IC50-value for the p34^cdc2/cyclinB complex
  IC50: 80 µM

## CN1CC[C@H](c2c(O)cc(O)c3c(=O)cc(-c4ccccc4Cl)oc23)[C@H](O)C1 [Flavopiridol]
[17]
  IC50: 6 µM

## CN[C@@H]1C[C@H]2O[C@@](C)([C@@H]1OC)n1c3ccccc3c3c4c(c5c6ccccc6n2c5c31)C(=O)NC4 [Staurosporine]
[17]
  IC50: 0.009 µM

## CN[C@@H]1C[C@H]2O[C@@](C)([C@@H]1OC)n1c3ccccc3c3c4c(c5c6ccccc6n2c5c31)C(=O)N[C@@H]4O [UCN-01]
[4]
  IC50: […]
[1]
  IC50: 0.031 µM

## O=C1/C(=C2\Nc3ccccc3C2=O)Nc2ccccc21 [indigo]
[6]; [20]
  IC50: > 1000 µM
[9]; calculated from dose response curves, Table 4, read-out: IC50 CDK4/ cyclin D1
  IC50: > 100 µM
[10]
  IC50: > 1000 µM
[11]; [22]
  IC50: > 100 µM
[12]
  IC50: 70 µM

## CN1C(=O)/C(=C2/C(=O)Nc3ccccc32)c2ccccc21 [meisoindigo, N-Methyl-isoindigo]
[18]
  complete and partial remission rate: 81.3%
  total response rate: 90.1%
